In US6617338B2, “Orally administrable acid stable antiulcer benzimidazole derivatives” (priority 2000, dated 2003):

System: pylorus ligated rats
Test: Pylorus ligated rats: total acid output and ulcer index
Format: in vivo, Wistar albino rats
Details: 0.4 mg/kg × 1 day p.o., mean ± SEM
Excerpt: The distribution of animals in groups, the sequence of trials and the treatment allotted to each group were randomized. Gastric ulceration was produced by pylorus ligation and absolute ethanol administration. In these methods, animals were fasted for 36 hrs before the experiment. Coprohagy was prevented by fasting the animals in cages with grating as the floor. […] The animals were sacrificed using anaesthetic ether after the completion of experiments; the stomachs were removed, opened along the greater curvature, washed with saline and examined with 6.4* (cm diameter) binocular magnifier. Lesions were assessed by two observers unaware of the experimental protocol. […] They were administered per orally, 30 minutes after the drug treatment the animals were subjected to any ulcerogenic procedure. Rats were anesthetized with anaesthetic ether and the portion of abdomen was opened by a small midline incision below the xiphoid process. Pylorus portion of the stomach was lifted and ligated. […] The stomach was isolated from the body and its contents were collected, measured and centrifuged. […] Immediately after the removal of the contents from the stomach, they were examined for lesions in the stomach portion which were measured and expressed in terms of ulcer index calculated as the total ulcerated area divided by the total mucosal area.

5-methoxy-2[(4-methoxy-3,5-dimethyl-2-pyridinyl)sulfinyl]-1H-benzimidazole [Omeprazole]
Total acid output (pylorus ligation 19 hours): 72.93 ± 7.17 meq/L/100 g
Ulcer index (total ulcerated area divided by total mucosal area): 0.88 ± 0.10
